Data as given in patent US11744853B2, “Method of administration and treatment” (Dyve Biosciences, Inc., priority 2017, dated 2023).

Experiments:
MCF-7 tumors = assay: MCF-7 tumor growth in SCID mice, doxorubicin with oral or topical bicarbonate (Example 9); format: in vivo; conditions: B doxorubicin 1.6 mg/kg i.p. days 3, 7, 11; C oral 200 mM bicarbonate; D oral bicarbonate + doxorubicin; E topical formulation 150 μL/day; F topical + doxorubicin
From the text: The start of the bicarbonate treatment was designated as day 1. […] On day 15, animals in Groups C and D were placed back on normal drinking water and animals in Groups E and F ceased received t.i.d. topical applications.
Tumor volumes and animal weights were monitored every 2 days.

MCF-7 cells = assay: Doxorubicin uptake and cytotoxicity in MCF-7 cells at medium pH 6.8 or 7.4 (Example 9); format: cell-based
Method: Medium pH was buffered using non-volatile buffers (10 mM MES, 20 mM HEPES and 10 mM TRICINE) in combination with bicarbonate concentrations that were adjusted to be in equilibrium with 5% ambient carbon dioxide. Twenty-four hours later, regular growth medium was replaced and cells allowed to grow a subsequent 72 h, after which time they were fixed and stained with crystal violet for determination of cell number.

## doxorubicin
MCF-7 tumors
  reduction in tumor growth rate: ~30%
MCF-7 cells; 14C doxorubicin
  increase in intracellular doxorubicin concentrations on raising the pHe from 6.8 to 7.4: 2.56 fold
MCF-7 cells; 24 h exposure, crystal violet after a subsequent 72 h
  enhancement of cytotoxicity on raising the pHe from 6.8 to 7.4: 2.25 fold
